In ChEMBL document CHEMBL1128897, “Bivalent indoles exhibiting serotonergic binding affinity” (Bioorg Med Chem Lett, 1995):

Assays:
[1] = biological target: T1, 5-hydroxytryptamine receptor 1A (Rattus norvegicus, UniProt P19327); test: Inhibitory activity against 5-hydroxytryptamine 1A receptor subtype
T1 sequence (P19327 whole entry): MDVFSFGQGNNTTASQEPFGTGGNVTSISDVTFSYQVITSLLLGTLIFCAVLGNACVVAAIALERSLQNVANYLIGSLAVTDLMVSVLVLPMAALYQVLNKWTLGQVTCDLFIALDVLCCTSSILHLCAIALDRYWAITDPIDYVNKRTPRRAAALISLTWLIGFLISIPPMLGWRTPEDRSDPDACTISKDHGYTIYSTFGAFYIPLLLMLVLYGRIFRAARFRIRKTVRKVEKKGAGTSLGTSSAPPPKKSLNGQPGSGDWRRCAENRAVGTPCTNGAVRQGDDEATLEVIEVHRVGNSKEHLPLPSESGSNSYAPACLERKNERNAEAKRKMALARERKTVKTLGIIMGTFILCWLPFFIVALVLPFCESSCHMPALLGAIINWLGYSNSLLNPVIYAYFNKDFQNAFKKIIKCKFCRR

[2] = biological target: 5-hydroxytryptamine receptor 1E (Homo sapiens, UniProt P28566); test: Inhibitory activity against 5-hydroxytryptamine 1E receptor subtype
5-hydroxytryptamine receptor 1E, sequence (P28566 whole entry): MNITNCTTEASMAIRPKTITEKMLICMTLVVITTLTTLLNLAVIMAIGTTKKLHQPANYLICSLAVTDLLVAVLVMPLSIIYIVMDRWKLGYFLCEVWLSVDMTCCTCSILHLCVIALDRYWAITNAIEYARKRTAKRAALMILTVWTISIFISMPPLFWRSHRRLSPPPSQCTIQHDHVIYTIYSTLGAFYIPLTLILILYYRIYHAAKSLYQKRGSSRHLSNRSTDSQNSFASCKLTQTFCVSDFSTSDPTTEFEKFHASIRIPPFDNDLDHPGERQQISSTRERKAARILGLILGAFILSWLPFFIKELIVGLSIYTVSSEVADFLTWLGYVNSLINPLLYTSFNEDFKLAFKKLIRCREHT

[3] = biological target: Sodium-dependent serotonin transporter (Rattus norvegicus, UniProt P31652); test: Ability to inhibit Serotonin transporter
Sodium-dependent serotonin transporter, sequence (P31652 whole entry): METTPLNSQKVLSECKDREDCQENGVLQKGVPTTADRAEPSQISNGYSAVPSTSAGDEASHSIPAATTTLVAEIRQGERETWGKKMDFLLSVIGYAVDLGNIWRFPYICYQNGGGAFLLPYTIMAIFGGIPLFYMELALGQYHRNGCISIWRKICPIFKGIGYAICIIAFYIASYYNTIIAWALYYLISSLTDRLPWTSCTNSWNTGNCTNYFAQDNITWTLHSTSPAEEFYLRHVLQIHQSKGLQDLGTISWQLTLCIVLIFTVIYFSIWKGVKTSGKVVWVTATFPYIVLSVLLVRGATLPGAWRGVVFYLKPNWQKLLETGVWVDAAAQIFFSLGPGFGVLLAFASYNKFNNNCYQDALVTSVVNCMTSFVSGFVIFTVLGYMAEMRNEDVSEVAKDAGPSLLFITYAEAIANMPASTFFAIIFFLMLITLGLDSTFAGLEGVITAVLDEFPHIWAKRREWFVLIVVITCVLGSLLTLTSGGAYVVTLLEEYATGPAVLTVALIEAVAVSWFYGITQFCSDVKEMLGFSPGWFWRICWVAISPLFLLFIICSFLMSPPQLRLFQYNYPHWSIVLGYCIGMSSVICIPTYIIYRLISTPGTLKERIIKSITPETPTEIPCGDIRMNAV

Row | Compound | IC50 [1] [nM] | IC50 [2] [nM] | IC50 [3] [nM]
1 | NC(=O)c1ccc2[nH]cc(C3=CCC(NCCCCCNC4CC=C(c5c[nH]c6ccc(C(N)=O)cc56)CC4)CC3)c2c1 (centres undefined) | 2.86 | > 1000 | 47.5
2 | NC(=O)c1ccc2[nH]cc(C3=CCC(NCCCCCCNC4CC=C(c5c[nH]c6ccc(C(N)=O)cc56)CC4)CC3)c2c1 (centres undefined) | 2.27 | > 1000 | 33.9
3 | NC(=O)c1ccc2[nH]cc(C3=CCC(NCCCCCCCNC4CC=C(c5c[nH]c6ccc(C(N)=O)cc56)CC4)CC3)c2c1 (centres undefined) | 1.83 | 99 | 17.7
4 | NC(=O)c1ccc2[nH]cc(C3=CCC(NCCCCCCCCCCCCNC4CC=C(c5c[nH]c6ccc(C(N)=O)cc56)CC4)CC3)c2c1 (centres undefined) | 0.13 |  | 
5 | NC(=O)c1ccc2[nH]cc(C3=CCC(NCCCCCCCCNC4CC=C(c5c[nH]c6ccc(C(N)=O)cc56)CC4)CC3)c2c1 (centres undefined) | 2.13 | 392 | 12.4
6 | NC(=O)c1ccc2[nH]cc(C3=CCC(NCCCCCCCCCCNC4CC=C(c5c[nH]c6ccc(C(N)=O)cc56)CC4)CC3)c2c1 (centres undefined) | 0.22 | > 1000 | 
7 | CCCCCCCNC1CC=C(c2c[nH]c3ccc(C(N)=O)cc23)CC1 (centres undefined) | 1.27 |  | 

Other lines, results leading:

Row | IC50 [1] [nM] | IC50 [2] [nM] | IC50 [3] [nM] | Compound
8 | 2 | > 1000 | 12.6 | NC(=O)c1ccc2[nH]cc(C3=CCC(NCCNC4CC=C(c5c[nH]c6ccc(C(N)=O)cc56)CC4)CC3)c2c1 (centres undefined)
9 | 14.5 | > 1000 | 47.8 | NC(=O)c1ccc2[nH]cc(C3=CCC(NCCCCNC4CC=C(c5c[nH]c6ccc(C(N)=O)cc56)CC4)CC3)c2c1 (centres undefined)
10 | 18 | > 1000 |  | NC(=O)c1ccc2[nH]cc(C3=CCC(NCCCNC4CC=C(c5c[nH]c6ccc(C(N)=O)cc56)CC4)CC3)c2c1 (centres undefined)
